In experiment [1] the test system is Balb/c mice. The experiment can be described thus: Hot-Plate Test (antinociceptive effect), sub-chronic oral administration. Conditions: po daily for 16 days, 0.1 and 5 mg/Kg, hot plate on days 1, 8 and 15. Format: in vivo. An excerpt:
The objective of the study was to assess antinociceptive activity of tested items in the hot plate tests in mice, when administered sub-chronically. Measuring paw licking or jumping response time elapses following placement on heated surface (hot plate) was used to determine potential antinociceptive effect in mice.
A total of 42 Balb/c mice (12 weeks old) were utilized. The mice were approximately 25 g males at study initiation. The minimum and maximum weights of the group were within a range of ±10% of group mean weight.
Compounds 2 and 3 were tested and compared with Diclofenac® (Perigo). DMSO solutions were used. Six groups of mice (each having n=7 or n=8 mice) were tested, the last group receiving Diclofenac®.
All groups received the drugs daily po for 16 days. Hot plate experiments were performed on days; 1, 8 and 15.
The hot plate is maintained thermostatically at a temperature of 52° C. One hour before the administration of the drugs, mice are tested in the hot plate. At time 0 the mice are administered with the test compound and the response to the hot plate is measured again at different times: 60, 120, 180, 240, 300 and 360 min.
Results are expressed as: Delta from maximum response [baseline vs. maximum response]; Absolute measures over time; and Accumulated time.
(In general: In hot-plate and tail-flick tests a longer latency is read as antinociception.)

The test system of experiment [2] is Balb/c mice. The experiment is described as follows: Formalin test. The following applies: i.p. 0.2, 1, 2.5 mg/kg, formalin 1% intraplantar 3 h or 4 h after the treatment, FIGS. 12a-12e. Format: in vivo. As for the experimental part:
Formalin test. The method used was similar to that described by Hunscaar and Hole (1987) “The formalin test in mice: dissociation between inflammatory and non-inflammatory pain,” Pain 30, pp. 103-104.
Five animals are used in each group and two to three hours after oral administration of the conjugates, 40 μl or 20 μl (rats or mice, respectively) of a 1% formalin (in 0.9% saline) solution is injected subcutaneously into the dorsal surface hind paw. The formalin induced typical flinching behaviour of the injected paw which was counted. The animals were returned to a glass chamber and the total time spent by the animal licking or biting the injected paw was measured. Formalin induced pain behaviour is biphasic. The duration of paw licking was determined during the following two time periods: 0-5 min (first-neurogenic phase) and 20-30 min (second-inflammatory phase) after formalin injection.
Part a. Male mice (Balb/c mice, 27 weeks old, not naïve), were divided in 4 groups (5 mice per group) and treated (0 min, i.p.) with the following formulations, respectively: […]
Part b. Male mice (Balb/c mice, 27 weeks old, not naïve), were divided in 4 groups (5 mice in groups) and treated (0 min, i.p.) with the following formulations, respectively: […]

In the case of `CC(O)COCC(Cc1ccc(O)cc1)NC(=O)CCc1ccccc1` (stereo not drawn) [Compound 2], in experiment [1], the “effectiveness as pain relievers (hot plate test)” value was “effective as pain relievers”. Besides, in experiment [2], the “anti-inflammatory properties (formalin test)” value is “confirm the anti-inflammatory properties”. On to `O=C(CCc1ccccc1)NC(COCCO)Cc1ccc(O)cc1` (stereo not drawn) [Compound 3], for which the “effectiveness as pain relievers (hot plate test)” value in experiment [1] was “effective as pain relievers”.
